# From PMC3703888, “Integration of Different “-omics” Technologies Identifies Inhibition of the IGF1R-Akt-mTOR Signaling Cascade Involved in the Cytotoxic Effect of Shikonin against Leukemia Cells” (Evidence-based Complementary and Alternative Medicine : eCAM, 2013)
# Entries after “also recorded” stand apart in the source; their conditions may differ.
# Assays:
# p-Akt = experiment: FlowCellect PI3K-mTOR signaling cascade assay (flow cytometry), p-Akt; assay type: cell-based; settings: 24 h
# From the text: The FlowCellect PI3K-mTOR signaling cascade assay kit (Merck Millipore, Germany) was used to analyze the effect of shikonin on the PI3K-mTOR signaling pathway. The assay is based on two directly conjugated phospho-specific signaling antibodies against phosphorylated Akt and phosphorylated ribosomal S6 protein, which are both important signaling nodes of the mTOR cascade. The phosphorylation of Akt is indicative of the upstream PI3K signaling, marking the cells initiation into proliferation or cell survival. Phosphorylated-ribosomal S6 protein is indicative of downstream mTOR and p70S6K signaling leading to protein translation. The assay was performed according to the manufacture's protocol. Briefly, 1.5 × 10^6 U937 cells were treated with 0.3 μM shikonin or DMSO solvent control and incubated for 24 h. Subsequently, cells were fixed on ice for 20 min using the supplied fixation buffer. After fixation, cells were washed twice and treated with permeabilization buffer on ice for 20 min. After two further washing steps, cells were resuspended in a final volume of 90 μL assay buffer and incubated with 5 μL 20x anti-phospho-ribosomal protein S6 (Ser235) PerCP conjugated monoclonal antibody and 5 μL 20x anti-phospho-Akt1/PKBα (Ser473) Alexa Fluor 488 conjugated monoclonal antibody in the dark on ice for one hour. After antibody incubation, cells were centrifuged and resuspended in 500 μL assay buffer. Subsequently, cells were measured in a LSR-Fortessa FACS analyzer (Becton-Dickinson, Germany) and shikonin fluorescence was compensated for the respective channels. For each sample, 1 × 10^4 cells were counted. The PerCP signal was measured with 488 nm excitation and detected using a 670/30 nm bandpass filter. The Alexa Fluor 488 signal was analyzed with 488 nm excitation and detected using a 530/30 nm bandpass filter. All parameters were plotted on a logarithmic scale. Cytographs were analyzed using FlowJo software (Celeza, Switzerland). All experiments were performed at least in triplicate. Student's t-test was used for statistical analysis.
# U937 cells = experiment: mRNA microarray; assay type: cell-based, human; settings: shikonin at IC50 concentration, 24 h vs DMSO
# Procedure: Total RNA from U937 cells after 24 h of treatment with shikonin at IC50 concentration or DMSO solvent control was isolated using RNeasy Kit from Qiagen (Hilden, Germany) according to the manufacture's instruction. The quality of total RNA was checked by gel analysis using the total RNA Nano chip assay on an Agilent 2100 Bioanalyzer (Agilent Technologies GmbH, Berlin, Germany). Only samples with RNA index values greater than 9.3 were selected for expression profiling. Microarray experiments were performed in duplicates for treated and untreated samples. Biotin-labeled cRNA samples for hybridization on Illumina Human Sentrix-HT12 Bead Chip arrays (Illumina, Inc.) were prepared according to Illumina's recommended sample labeling procedure based on the modified Eberwine protocol. Biotin-16-UTP was purchased from Roche Applied Science (Penzberg, Germany). The cRNA was column purified with TotalPrep RNA Amplification Kit and eluted in 60 μL of water. Quality of cRNA was controlled using the RNA Nano Chip Assay on an Agilent 2100 Bioanalyzer and spectrophotometrically quantified (NanoDrop). Hybridization was also performed according the manufacturer's recommendations. Microarray scanning was done using a Beadstation array scanner, setting adjusted to a scaling factor of 1 and PMT settings at 430. Data was extracted for each bead individually, and outliers were removed when the MAD (median absolute deviation) was greater than 2.5. Data analysis was performed by using the quantile normalization algorithm without background subtraction, and differentially regulated genes were defined by calculating the standard deviation differences of a given probe in a one-by-one comparison of samples or groups. The expression data obtained was filtered with Chipster data analysis platform. These steps include filtering of genes by two times standard deviation of deregulated genes and a subsequent assessment of significance using empirical Bayes t-test (P < 0.05).
# [1] = cytograph p-Akt / p-ribosomal protein S6, U937 cells, 0.3 μM
smiles,measurement,setting,value
CC(C)=CC[C@@H](O)C1=CC(=O)c2c(O)ccc(O)c2C1=O [shikonin],Phosphorylation of Akt,"p-Akt; U937 cells, 0.3 μM shikonin",significantly inhibits; also recorded: significantly decreased
same,Cells in quadrant Q1,p-Akt; [1],27.2%
same,Cells in quadrant Q2,p-Akt; [1],61.4%
same,Cells in quadrant Q3,p-Akt; [1],1.10%
same,Cells in quadrant Q4,p-Akt; [1],10.3%
same,"FC mRNA ACTB (Actin, cytoplasmic 1)",U937 cells,−6.8
same,"FC mRNA ACTG1 (Actin, cytoplasmic 2)",U937 cells,−11.9
same,FC mRNA ALDOA (Fructose-bisphosphate aldolase A),U937 cells,−17.6
same,FC mRNA ANXA1 (Annexin A1),U937 cells,+4.1
same,FC mRNA ARPC1B (Actin-related protein 2/3 complex subunit 1B),U937 cells,−7.8
same,FC mRNA CCL2 (C-C motif chemokine 2),U937 cells,+4.2
same,FC mRNA CCT7 (T-complex protein 1 subunit eta),U937 cells,−7.8
same,FC mRNA ERP29 (Endoplasmic reticulum resident protein 29),U937 cells,−6.0
same,FC mRNA HMOX1 (Heme oxygenase 1),U937 cells,+4.1
same,"FC mRNA HSPD1 (60 kDa heat shock protein, mitochondrial)",U937 cells,−6.6
same,FC mRNA JUN (Transcription factor AP-1),U937 cells,+3.2
same,FC mRNA LY96 (Lymphocyte antigen 96),U937 cells,+4.5
same,FC mRNA MAFB (Transcription factor MafB),U937 cells,+3.5
same,FC mRNA MLLT11 (Protein AF1q),U937 cells,+6.2
same,FC mRNA NCF1 (Neutrophil cytosol factor 1),U937 cells,−5.9
same,FC mRNA PSMC4 (26S protease regulatory subunit 6B),U937 cells,−7.7
same,FC mRNA S100A8 (Protein S100-A8),U937 cells,+4.7
same,FC mRNA S100A9 (Protein S100-A9),U937 cells,+4.2
same,FC mRNA SLC39A3 (Zinc transporter ZIP3),U937 cells,−6.2
same,FC mRNA VIM (Vimentin),U937 cells,+4.2
